Where two headings read alike, the source gives them in different places.
Assays:
[1] = metabolite profiling of plasma, urine, feces after intravenous dose; conditions: rats 10 mg/kg intravenous
Description: Samples were profiled using high performance liquid chromatography with radiodetection and metabolic characterization was performed using mass spectrometry and tandem mass spectrometry analysis.

Huh-7 cells [2] = experiment: whole genome bisulfite sequencing (WGBS), 5mCpG demethylation in promoter regions; format: cell-based, human
Description: (§1) Each sample, 2 μg, was sent to EpigenDx, Inc. (Hopkinton, MA) for analysis of global methylation bisulfite sequencing. The same samples, 6 μg, were sent to Novogene Co., Ltd (Tianjin, China) for analysis of whole genome bisulfite sequencing (WGBS). Total RNA was isolated using the Promega SV total RNA isolation system (Madison, WI) with DNase treatment. Each sample, 2 μg, was used for the first-strand cDNA synthesis as recommended by the manufacturer (Invitrogen, Carlsbad, CA). Real-time RT-PCR was performed using SYBR Green as the indicator on ABI 7500 Fast Real-Time PCR System (Applied Biosystems, Foster City, CA). Amplifications of β-actin or GAPDH were used as internal controls. Relative messenger RNA (mRNA) expression was quantified with the comparative cycle threshold (Ct) method using the primer set shown in Table 1.1 and was expressed as 2^−ΔΔCt.
Each sample, […] of genomic DNA spiked with 26 ng lambda DNA, was fragmented by sonication to 200-300 bp with Covaris S220, followed by end repair and adenylation. Cytosine-methylated barcodes were ligated to sonicated DNA per the manufacturer's instructions. These DNA fragments were treated twice with bisulfite using EZ DNA Methylation-Gold™ Kit (Zymo Research) before the resulting single-strand DNA fragments were PCR amplified using KAPA HiFi Hot Start Uracil and Ready Mix (2×). Library concentration was quantified by Qubit® 2.0 Flurometer (Life Technologies, CA, USA) and quantitative PCR, and the insert size was assayed on an Agilent Bioanalyzer 2100 system.
The library preparations were sequenced on an Illumina Hiseq 2500/4000 or Novaseq platform and 125 bp/150 bp paired-end reads were generated. Image analysis and base calling were performed with Illumina CASAVA pipeline. Trimmomatic (Trimmomatic-0.36) software was used for quality control. Bismark software (version 0.16.3; Krueger F, 2011) was used to perform alignments of bisulfite-treated reads to a reference genome (−X 700-dovetail). DSS software (23) was used to identify differentially methylated regions (DMRs). KOBAS software was used to test the statistical enrichment of DMR related genes in the Kyoto Encyclopedia of Genes and Genomes (KEGG) pathways.
Each sample (6 μg) was used for analysis of the whole genome bisulfite sequencing (WGBS).

[3] = Phase 1b 4-week oral dosing study in NASH patients: pharmacokinetics; format: in vivo, human; conditions: for AUC(0-t) / Cmax / half-life / Tmax: both sexes, human, plasma, oral; for AUC(0-t): read-out: AUC(0-T), mean (standard deviation); for Cmax: read-out: Cmax, mean (standard deviation); for half-life: read-out: T1/2, mean (standard deviation) (converted); for Tmax: read-out: Tmax, mean (standard deviation)
Excerpt: A total of 63 patients completed the study with 21 patients per dose group (completion of MRI-PDFF measurement). […] Subjects provided written informed consent to participate in the study • 2. Males or females subjects 18 years or older, at the time of signing informed consent • 3. BMI 20-45 kg/m^2 • 4. […] Value of Fibroscan®≥7 kPa • OR • b. MRE≥2.75 kPa • Clinical diagnosis of NASH was defined in this clinical trial as the existence of one or more of the following risk factors for NASH, namely: • a. Type 2 diabetes or elevated fasting blood sugar • b. Abdominal obesity • c. Elevated lipid levels, especially elevated levels of serum triglycerides • d. Hypertension, or • e. Low levels of HDL cholesterol • 5. For serum transaminases, ALT concentration for all patients at the time of screening was >1 and <5 times upper limit of normal (ULN) of the central lab in the absence of another cause of liver disease. If a patient had lab records in the past 6 months, ALT concentrations were <20 U/L female and <30 U/L male. AST concentration for all patients at the time of screening was <5× ULN • 6. […] Platelet counts≥120,000/mm^3 • 8. Female subjects were eligible for the study if they met the following criteria: • Are not pregnant or nursing • Women of child-bearing potential (defined as females who are not surgically sterile or who are not over the age of 52 and amenorrheic for at least 12 months) must utilize appropriate birth control throughout the study duration. Acceptable methods that may be used are abstinence, birth control pills (“The Pill”) or patch, diaphragm, IUD (coil), vaginal ring, condom, surgical sterilization or progestin implant or injection, or sexual activity limited to a sterile (e.g., vasectomized) male partner • 9. Male participants agreed to consistently and correctly use a condom in combination with one of the above methods of birth control from enrolment to 30 days after the last dose of study medication • 10. Participants were able to comply with dosing and able to complete the study schedule of assessments

Huh-7 cells [4] = experiment: real-time RT-PCR gene expression; format: cell-based, human; conditions: HG 72 h; 25HC3S 6.25-50 μM, 1-8 hours
Description: as §1, with “FIGS. 3A-3D. Expression of key genes related to signaling pathways. […] Key Genes and their targeting genes expression were determined by RT-PCR analysis. […] Each” for “Each”, “[…],” for “EpigenDx,”, “Each sample, 2 μg, was used for the first-strand cDNA synthesis as recommended by the manufacturer (Invitrogen, Carlsbad, CA).” left out, “2^-ΔΔCt.” for “2^−ΔΔCt.”

## C[C@H](CCCC(C)(C)O)[C@H]1CC[C@H]2[C@@H]3CC=C4C[C@@H](OS(=O)(=O)O)CC[C@]4(C)[C@H]3CC[C@]12C [25HC3S, 25-hydroxycholesterol-3-sulfate]
[1]; pools 0 to 48 hours
  % of dose in feces: 2%
[1]; up to 1 hour post-dose
  share of the exposure (AUC) to 25HC3S related radioactivity in plasma: approximately 54%
Huh-7 cells [2]; HG 72 h, then 25HC3S 4 h
  genes demethylated in promoter regions, Calcium signaling pathway: 19 genes
  genes demethylated in promoter regions, MAPK signaling pathway: 23 genes
  genes demethylated in promoter regions, cAMP signaling pathway: 28 genes
Huh-7 cells [2]; high glucose model
  genes with 5mCpG converted to CpG in promoter regions: 1074 genes
[3]; 50 mg QD (n = 22)
  CL/F, mean (standard deviation): 150.6 (51.5) L/h
  AUC(0-t): 340 ng·h/mL
  Cmax: 79.1 ng/mL
  half-life: 2.7 h
  Tmax: 2.4 h
[3]; 150 mg QD (n = 21)
  CL/F, mean (standard deviation): 176.6 (80.5) L/h
  AUC(0-t): 1040 ng·h/mL
  Cmax: 274 ng/mL
  half-life: 2.7 h
  Tmax: 2 h
[3]; 300 mg BID (n = 21)
  CL/F, mean (standard deviation): 166.2 (60.4) L/h
  AUC(0-t): 2140 ng·h/mL
  Cmax: 430 ng/mL
  half-life: 2.4 h
  Tmax: 2.3 h
Huh-7 cells [4]
  CREB5 expression, increase: up to 20 fold
  DUSP8 expression, increase: 5 fold
  FAS expression, decrease: ~90%
  HMGR expression, decrease: ~90%
  PGC1A expression, increase: 12 fold
